Active and inactive are the calls of the source. No cut-off for these calls is given here.
Legend:
Mus musculus [1] = species: Mus musculus; experiment: Toxicity in mouse at 2.5 mM; assay type: organism-based; conditions: in vivo, 2500 µM
Mus musculus [2] = experiment: Antibotulinum activity against botulinum neurotoxin serotype A-induced toxicity in iv dosed mouse after 48 hrs; assay type: functional, organism-based
Mus musculus [3] = experiment: Antibotulinum activity against botulinum neurotoxin serotype A-induced toxicity in iv dosed mouse assessed as time to death; assay type: functional

SMILES | Activity (Mus musculus [1]) | Activity (Mus musculus [2]) | Activity (Mus musculus [3]) [h]
CC(=O)OC1C(=O)CC(C)(C)C23OC2CC(c2ccccc2)C13C (racemic) | Non-toxic | inactive | –
CC(=O)O[C@@H]1C[C@H](O)[C@@]23CO[C@@H](O)[C@]1(C)[C@@H]2C[C@@H](O)[C@]1(C)[C@@H]3C(=O)[C@H](OC(C)=O)[C@@]2(C)[C@H](c3ccoc3)C[C@H]3O[C@]321 [TOOSENDANIN] | – | – | 7.1

Source: ChEMBL document CHEMBL1143365, “Function-oriented synthesis applied to the anti-botulinum natural product toosendanin” (Bioorg Med Chem, 2009)
